Measured values published in patent publication US20230256050A1, “COMPOSITIONS, METHODS AND USES COMPRISING TENEURIN C-TERMINAL ASSOCIATED PEPTIDE -1 (TCAP-1) FOR ENHANCING MUSCLE PERFORMANCE” (priority 2016, published 2023).
Where no end group is shown, it is not given here.

What was measured:
C2C12 myotubes [1] = assay: Calcium imaging in live C2C12 cells (fluo-4); assay type: cell-based, mouse; settings: caffeine 4 mM, TCAP-1 100 nM pre-treatment for 1 hour; for peak in cytosolic calcium on caffeine application (fluo-4 fluorescence): compared with caffeine alone; for decline of cytosolic calcium after the caffeine peak: over 5 minutes
Protocol: For live-cell fluorescence experiments, immortalized murine C2C12 skeletal muscle cells were grown and fully differentiated on Poly-D-lysine coated 25 mm round No. 1 glass coverslips (Warner Instruments, Hamden, CT, USA). Cells were grown in Dulbecco’s Modified Eagle Medium (DMEM) supplemented with 20% fetal bovine serum (FBS), 100 U/ml penicillin and 100 µg/ml streptomycin (Invitrogen, Burlington, ON, Canada), and stimulated differentiation with DMEM supplemented with 10% horse serum (HS), 100 U/ml penicillin and 100 µg/ml streptomycin (Invitrogen, Burlington, ON, Canada. Changes in intracellular calcium were assessed using the membrane-permeable calcium sensitive fluorescent indicator fluo-4, AM (Invitrogen, Burlington, ON, Canada). Cells were loaded with fluo-4 by incubating a single coverslip in DMEM containing 10 µM fluo-4 (from a 1 mM stock solution in DMSO) for 30 min (37° C.) followed by a 15 min wash in Locke’s Buffer containing (in mM): 154 mM NaCl, 4 mM NaHCOs, 5 mM KCI, 2.3 mM CaCl2, 1 mM MgCl2, 5 mM glucose and 10 mM Hepes (pH 7.4); osmolarity 305-310 mOsmol at 22° C. During loading, the acetate groups on fluo-4 are removed by intracellular esterases reducing dye leakage. In experiments assessing changes in intracellular calcium, coverslips were placed in a flow-through bath chamber (RC-40HP, Warner Instruments, Hamden, CT, USA) of an inverted microscope (Axio Observer Z1, Zeiss, Toronto, ON, Canada) equipped with a 40× oil immersion objective. Cells were continuously bulk perfused with Locke’s buffer via a gravity drip perfusion system at a rate of 2-3 ml min-1 and experiments were conducted at a room temperature (RT) of 22° C. Changes in fluo-4 fluorescence was imaged using a green fluorescent protein (GFP) filter set (Semrock, Rochester, NY, USA) and a X-Cite 120 fluorescence illumination system (Excelitas Technologies, Mississauga, ON, Canada), controlled by Volocity 4.0 imaging software (Quorum Technologies Inc., Guelph, ON, Canada). Fluorescence emissions were detected with an Orca-ER Hamamatsu B/W CCD digital camera (Hamamatsu, Middlesex, NJ, USA). Fluo-4 was excited with a wavelength of 480 nm for 100 ms every 5 sec and fluorescence emission was measured at wavelength of 516 nm. Caffeine (4 mM; Sigma Aldrich, Oakville, ON) was applied to C2C12 myotubes to stimulate calcium release from the sarcoplasmic reticulum. Cells were either pre-treated with TCAP-1 (100 nM) for 1 hour before stimulation with caffeine. Using velocity 4.0 imaging software, multiple regions of interests (ROIs) were taken from each coverslip to be analysed.

C2C12 myotubes [2] = assay: Mitochondrial membrane potential in C2C12 cells with Rhodamine-123; assay type: cell-based, mouse; settings: caffeine 4 mM; TCAP-1 100 nM pre-treatment for 1 hour, compared with caffeine alone
Protocol: C2C12 myotubes were cultured as previously described above. Changes in mitochondrial membrane potential were assessed using fluorescent indicator Rhodamine123 (R123). Cells were loaded with R123 by incubating a single coverslip in DMEM containing 5 µM R123 (from a 1 mM stock solution in DMSO) for 30 min (37° C.) followed by a 15 min wash in Locke’s Buffer containing (in mM): 154 mM NaCl, 4 mM NaHCOs, 5 mM KCI, 2.3 mM CaCl2, 1 mM MgCl2, 5 mM glucose and 10 mM Hepes (pH 7.4); osmolarity 305-310 mOsmol at 22° C. […] Changes in R123 fluorescence was imaged using a green fluorescent protein (GFP) filter set (Semrock, Rochester, NY, USA) and a X-Cite 120 fluorescence illumination system (Excelitas Technologies, Mississauga, ON, Canada), controlled by Volocity 4.0 imaging software (Quorum Technologies Inc., Guelph, ON, Canada). Fluorescence emissions were detected with an Orca-ER Hamamatsu B/W CCD digital camera (Hamamatsu, Middlesex, NJ, USA). R123 was excited with a wavelength of 480 nm for 100 ms every 5 sec and fluorescence emission was measured at wavelength of 516 nm. […] Using velocity 4.0 imaging software, multiple regions of interests (ROIs) were taken from each coverslip to be analysed.

[3] = system: diacylglycerol (DAG) levels, downstream signaling of ADGRL1, C2C12 skeletal cell line; assay: Mouse diacylglycerol (DAG) ELISA in C2C12 cell lysates; assay type: cell-based; settings: TCAP-1 100 nM, after 60 minutes, p<0.0001
Protocol: (§1) Immortalized murine skeletal cell line C2C12 cells were used for all in vitro studies. Cells were maintained at 60-70% confluency with Dulbecco’s Modified Eagle Medium (DMEM) supplemented with 20% fetal bovine serum (FBS) and penicillin/streptomycin antibiotic combination. To induce differentiation, the media was changed to DMEM supplemented with 10% horse serum and penicillin/streptomycin antibiotic combination, and cells were allowed to differentiate for 6 days (media replaced every 24 h). For treatment, cells were serum starved for 3 h and then treated with either vehicle (ddH20) or TCAP-1 (100 nM).
(§2) The protocols provided by commercial DAG and IP3 assays (MyBiosource, San Diego, California USA). Briefly, immortalized mouse C2C12 cells were prepared using the TCAP-treatment protocol described previously. Cells were added to a microELISA plate coated with purified mouse DAG or IP3 antibodies, respectively. Subsequently, 3,3′,5,5′-tetramethylbenzidine (TMB) solution was added to detect the HRP-conjugates as the colour changes. Finally, a sulphuric acid solution was added to terminate the reaction. The absorbance change was measured at a wavelength of 450 nm using a spectrophotometer (SpectraMax Plus).

[4] = system: inositol triphosphate (IP3) levels, downstream signaling of ADGRL1, C2C12 skeletal cell line; assay: Mouse inositol triphosphate (IP3) ELISA in C2C12 cell lysates; assay type: cell-based; settings: TCAP-1 100 nM, after 15 minutes, p<0.0001
Protocol: as §1, §2

[5] = system: C2C12 murine skeletal muscle cells; assay: Radioactive glucose (3H-2-deoxyglucose) uptake in vitro; assay type: cell-based, mouse; settings: 100 nM, at 30 and 45 minutes (p<0.0001, p<0.001)
Protocol: as §1
Immortalized murine skeletal C2C12 cells were allowed to proliferate and differentiate and glucose uptake protocol was followed as previously described with minor modifications (Maher et al., 1991; Uemura & Greenlee, 2006). At day 6 post-plating, cells were washed 2x with Locke’s buffer (154 mM NaCl, 5.6 mM KCI, 2.3 mM CaCl2, 3.6 mM NaHCOs, 5 mM HEPES) without serum and glucose. The culture was incubated in the Locke’s buffer for 1 h at 37° C. followed by exposure to 100 nM insulin, 100 nM TCAP-1, 100 nM SC-TCAP-1, or saline. 3H-2-deoxyglucose (0.5 µCi/ml) was added to culture 5 min before termination of treatment exposure. […] Cell lysates were used for determination of radioactivity by a beta liquid scintillation counter (Beckman Coulter).

hind limb muscle = assay: Functional positron emission tomography (fPET) of 18F-deoxyglucose uptake; assay type: in vivo, Wistar rats; settings: single subcutaneous 10 nmoles/kg, 3 days later, p<0.1, n=5
Protocol: Male adult Sprague-Dawley rats (-350 g) were used for the muscle function studies. Male adult Wistar rats (-250 g) were used for the functional positron emission tomography tests. Functional Positron emission tomography (fPET) was performed using a Siemens Inveon microPET small animal PET scanner, and [18F]-2-deoxyglucose (FDG) radiotracer (IBA Molecular) and protocol was followed as previously described (Hogg et al., manuscript in review). PET scans were acquired on all of the animals 3 days post-dosing. The animals were injected intravenously with approximately 1mCi of FDG. The FDG uptake occurred under anesthesia for 90 min. Body temperature was maintained with a thermostat-regulated recirculating water heated pad. Static emission data was acquired for 20 minutes. […] The total PET counts were calculated from all voxels within the segmented volumes of interest. (Percent injected dose (%ID)) was calculated by normalizing the total counts in each tissue of interest at each time point, to the whole body total counts calculated over 1 min from the whole body max uptake time point, for each animal, during the first 90 min post FDG administration.) These images were then compiled into 3D projections, thus allowing for accurate analyses of muscle tissue. Fluorescence of the mean pixel was calibrated to volume of muscle being analyzed (mean pixel fluorescence/mm3).

tibialis anterior muscle [6] = assay: Electrical muscle stimulation, 6-minute fatigue protocol; assay type: in vivo, Sprague-Dawley rats
Protocol: Male adult Sprague-Dawley rats (-350 g) were used for the muscle function studies. Male adult Wistar rats (-250 g) were used for the functional positron emission tomography tests. Electrical muscle stimulation protocol was followed as described by Holwerda and Locke (2014) with minor modifications. Briefly, sixteen male adult Sprague-Dawley rats ([…]) were allowed to acclimate for 1 week on a 12:12 LD cycle. For 5 days daily, half of the rats (n=8) were treated with physiological saline control, and the other half (n=8) was treated with mouse-TCAP-1 (10 nmoles/kg) by subcutaneous injection in the interscapular region. Three days from the last treatment, animals were anesthetized with 5% isofluorane in 1 L/min O2, and subsequently positioned into testing apparatus. A 25 g needle was inserted through the soft tissue of the knee in order to ensure a stable position. The foot was placed on the lever attached to a servomotor and taped in position. Electrodes were placed below the skin but adjacent to the tibialis anterior (TA) muscle. The correct voltages for peak tetanic tension was established by increasing voltage by 1 volt increments. The test began with a single tetanus and single twitch protocol to establish baseline. The 6-min fatigue protocol (8 V, 200 Hz, 300 ms) was started. Immediately following the termination of the protocol, tetanic and twitch tensions were recorded at 0, 1, and 5 mins. Animals were immediately sacrificed after recovery measurements were recorded.

tibialis anterior muscle [7] = assay: Oxidative capacity, NADH staining of muscle cryosections; assay type: in vivo, Sprague-Dawley rats; settings: 10 nmoles/kg for 5 days
Protocol: Tibialis anterior muscles from the treated Sprague-Dawley rats were flash-frozen in liquid-nitrogen-cooled isopentane until cryosectioned at 10 µm thickness. Cryosections were then washed 2X with PBS, and then 0.2% NBT solution in PBS containing 0.1% NADH was added and allowed to incubate for 30 min at 37° C. Slides were washed 2X in PBS before mounted with cryoseal and imaged with Canon camera and Leica bright-field microscope at 100x magnification. Images were analyzed on Image J software and frequency distribution curves were constructed, where the darker the pixel represents higher NADH levels. Frequency curves were built based on average of five pictures per tissue, with a minimum of three tissues analysed for each group.

neurons = settings: via increases of glucose transporter GLUT-3 to the plasma membrane (unpublished); cited from earlier work
[8] = 10 nmoles/kg s.c. for 5 days, baseline

| Molecule | peak in cytosolic calcium on caffeine application (fluo-4 fluorescence) (C2C12 myotubes [1]) | decline of cytosolic calcium after the caffeine peak (C2C12 myotubes [1]) | mitochondrial membrane potential (Rhodamine123 fluorescence) (C2C12 myotubes [2]) | DAG levels compared to vehicle treatment [3] | IP3 levels [4] | 3H-DG uptake into C2C12 cells vs vehicle [5] | 18F-DG uptake in hind limb muscles (fPET fluorescence) (hind limb muscle) | fatigue response curve vs vehicle (tibialis anterior muscle [6]; 10 nmoles/kg s.c. for 5 days) | tetanic force production throughout fatigue or recovery vs vehicle (tibialis anterior muscle [6]; 10 nmoles/kg s.c. for 5 days) | force generated in recovery after fatigue protocol (tibialis anterior muscle [6]; 10 nmoles/kg s.c. for 5 days, after 6-minute fatigue protocol) | contraction relaxation rate at baseline vs vehicle (tibialis anterior muscle [6]; [8]) | contraction velocity at baseline vs vehicle (tibialis anterior muscle [6]; [8]) | half relaxation time (1/2RT) over fatigue protocol (tibialis anterior muscle [6]; 10 nmoles/kg s.c. for 5 days, compared to vehicle, p<0.05) | muscle mass vs vehicle (tibialis anterior muscle [6]; 10 nmoles/kg s.c. for 5 days, extracted muscles) | twitch peak force at pre-test (baseline) vs vehicle (tibialis anterior muscle [6]; 10 nmoles/kg s.c. for 5 days, tested 3 days after last injection, p<0.05) | rate of the contractions (max dx/dt) over fatigue protocol (tibialis anterior muscle [6]; 10 nmoles/kg s.c. for 5 days, vehicle group steadily declined, p<0.05) | fiber size vs vehicle (tibialis anterior muscle [6]; data not shown) | NADH staining (oxidative capacity), unstimulated control limb, vs vehicle (tibialis anterior muscle [7]; contralateral control limb, p<0.05) | TCAP-1-mediated increase in oxidative capacity (NADH), stimulated limb, vs vehicle (tibialis anterior muscle [7]; exercised (stimulated) limb, p=0.1) | glucose uptake in neurons (neurons) |
| --- | --- | --- | --- | --- | --- | --- | --- | --- | --- | --- | --- | --- | --- | --- | --- | --- | --- | --- | --- | --- |
| Cn1c(=O)c2c(ncn2C)n(C)c1=O [caffeine, Caffeine, reference compound] | strong peak in cytosolic calcium | gradual decrease over 5 minutes | mitochondrial membrane depolarization | – | – | – | – | – | – | – | – | – | – | – | – | – | – | – | – | – |
| TCAP-1: 41-mer peptide from the C-terminal of teneurin-1, synthesized amidated, suspended in 0.9% saline for subcutaneous injection (QQLLGTGRVQGYDGYFVLSVEQYLELSDSANNIHFMRQSEI-NH2) | significantly lower peak | significantly faster decline | significantly higher membrane depolarization | significantly decreased | significantly reduced | significantly increased | significant increase | responded comparably | responded comparably | increased | increased | significantly slower | sustained | no difference | significantly higher | maintained throughout the protocol | no difference | significant increased frequency of a stronger NADH-positive staining | maintained | significantly increases glucose uptake |
